Five molecules from ChEMBL document CHEMBL1124303, “Conformational requirements of substrates for activity with phenylethanolamine N-methyltransferase” (J Med Chem, 1988) can be followed below.

The nature of data set [1]: Vmax value was measured. Format: ADME.
Data set [2] in a line: Km value was measured. Format: ADME.
Data set [3] addresses T1, Phenylethanolamine N-methyltransferase (Bos taurus, UniProt P10938).
T1 sequence (P10938 whole entry): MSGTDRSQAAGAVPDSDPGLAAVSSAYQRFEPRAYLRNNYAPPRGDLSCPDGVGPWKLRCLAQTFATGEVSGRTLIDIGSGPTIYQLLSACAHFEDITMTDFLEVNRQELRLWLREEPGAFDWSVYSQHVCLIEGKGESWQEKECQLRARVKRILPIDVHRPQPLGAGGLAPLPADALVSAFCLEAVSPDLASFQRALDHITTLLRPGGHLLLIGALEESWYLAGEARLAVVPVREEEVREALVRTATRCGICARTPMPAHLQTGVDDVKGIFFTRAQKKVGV
Briefly: Binding affinity to phenylethanolamine N-methyltransferase(PNMT) in bovine.

Data set [4] can be described thus: Ratio of Vmax to Km of compound was determined. In kind it is ADME.

For orientation: Vmax means the rate approached at saturating substrate. In general, Km refers to the concentration of substrate that gives half-maximal velocity. Take `NC[C@@H](O)c1ccccc1`: the Vmax in data set [1] stood at 2.2 nmol/min/mg. In addition, the Km in data set [2] turned out to be 70 µM.

In general, Ki refers to the dissociation constant of the complex between target and ligand, obtained from inhibition or displacement. Higher therefore signals lower affinity. For `OC1CNCc2ccccc21` (stereo not drawn), in data set [3], the Ki amounted to 176 µM. On to `N[C@H]1CCc2ccccc2[C@H]1O`, for which, in data set [4], the Ratio was found to be 68. In addition, the Vmax in data set [1] was 0.15 nmol/min/mg. Further, the Km in data set [2] is 22 µM. Consider `N[C@H]1CCc2ccccc2[C@@H]1O`, for which the Ki in data set [3] was determined as 9.4 µM. This lies in the single-digit micromolar range. The molecule `c1ccc2c(c1)CCNC2` [1,2,3,4-TETRAHYDROISOQUINOLINE] had a Ki in data set [3] of 10 µM.
